According to publication PMC7044277 (Nature Communications, 2020):
Values joined by “and” are separate entries in the source; they are usually repeats but may differ in a detail not shown here. Equal values may be shown once.

Tests used:
DRD2 (D2 long receptor) [1] = target: T1, DRD2 (D2 long receptor) (Homo sapiens, UniProt P14416); experiment: Gαi/o-mediated cAMP inhibition (GloSensor split-luciferase cAMP reporter), HEK293T; type: cell-based; conditions: for response, Fig_S11d dose-response source data: replicate values;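 on all read-outs here: compounds applied 15 min at room temperature, then luciferin plus 400 nM isoproterenol to raise cAMP through endogenous β2-adrenergic receptors, luminescence read 15 min later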
DRD4 (D4.4 variant) [2] = target: T2, DRD4 (D4.4 variant) (Homo sapiens, UniProt P21917); experiment: β-arrestin2 recruitment (Tango); type: cell-based; conditions: DRD4; Tango; read-out: EC50 ± SEM
T2 sequence (P21917 1-419): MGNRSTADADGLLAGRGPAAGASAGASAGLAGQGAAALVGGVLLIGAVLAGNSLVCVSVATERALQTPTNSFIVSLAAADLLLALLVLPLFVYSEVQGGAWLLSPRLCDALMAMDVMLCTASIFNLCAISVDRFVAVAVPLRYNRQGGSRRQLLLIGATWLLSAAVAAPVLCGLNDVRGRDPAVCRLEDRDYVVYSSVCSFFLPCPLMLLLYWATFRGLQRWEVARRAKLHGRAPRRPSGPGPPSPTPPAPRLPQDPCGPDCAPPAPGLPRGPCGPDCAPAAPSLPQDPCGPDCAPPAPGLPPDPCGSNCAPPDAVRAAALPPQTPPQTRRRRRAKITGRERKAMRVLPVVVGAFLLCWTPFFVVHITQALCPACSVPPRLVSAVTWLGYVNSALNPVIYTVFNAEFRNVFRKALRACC

DRD2 F1103.28L [3] = target: T3, DRD2 F1103.28L (Homo sapiens, UniProt P14416, F110L); experiment: β-arrestin2 recruitment (Tango), mutant; type: cell-based
T3 construct: expressed in transfected cells; host or cells: HEK293T (ATCC CRL-11268)

DRD2 (D2 long receptor) [4] = target: T1, DRD2 (D2 long receptor); experiment: β-arrestin2 recruitment (Tango), HTLA cells; type: cell-based; conditions: for response, Fig_S11e dose-response source data: replicate values
DRD3 F1063.28A [5] = target: T4, DRD3 F1063.28A (Homo sapiens, UniProt P35462, F106A); experiment: biochemical; type: binding; conditions: DRD3 F1063.28A; read-out: Ki
[6] = target: T5, DRD4 (D4.4 variant) wild-type (Homo sapiens, UniProt P21917); experiment: Radioligand competition binding, [3H]-N-methylspiperone; conditions: DRD4; [3H]-methylspiperone (0.8-1.0 nM); read-out: Ki
T5 sequence (P21917 1-419): T2 sequence (P21917 1-419)

DRD2 F1103.28A [7] = target: T6, DRD2 F1103.28A (Homo sapiens, UniProt P14416, F110A); type: binding; design: expressed in transfected cells; host or cells: HEK293T (ATCC CRL-11268); conditions: DRD2 F1103.28A; read-out: Ki
DRD4 (D4.4 variant) [8] = target: T2, DRD4 (D4.4 variant); experiment: Gαi/o-mediated cAMP inhibition (GloSensor); type: cell-based; conditions: DRD4; agonist, cAMP inhibition; read-out: EC50 ± SEM
DRD3 wild-type = DRD3 wild-type (Homo sapiens, UniProt P35462); experiment: Radioligand competition binding, [3H]-N-methylspiperone
DRD2 F1103.28A [9] = target: T6, DRD2 F1103.28A; experiment: β-arrestin2 recruitment (Tango), mutant; type: cell-based; design: expressed in transfected cells; host or cells: HEK293T (ATCC CRL-11268)
[10] = target: DRD2 (D2 long receptor) wild-type (Homo sapiens, UniProt P14416); experiment: Radioligand competition binding, [3H]-N-methylspiperone, HEK293T membranes; conditions: DRD2; [3H]-methylspiperone (0.8-1.0 nM); read-out: Ki
DRD2 F1103.28A [11] = target: T6, DRD2 F1103.28A; experiment: Gαi/o-mediated cAMP inhibition (GloSensor), mutant; type: cell-based; design: expressed in transfected cells; host or cells: HEK293T (ATCC CRL-11268)
DRD2 F1103.28L [12] = target: T3, DRD2 F1103.28L; experiment: Gαi/o-mediated cAMP inhibition (GloSensor), mutant; type: cell-based; conditions: DRD2 F1103.28L (b138 head prints DRD2 F1063.28L)
DRD3 = DRD3 (Homo sapiens, UniProt P35462); experiment: β-arrestin2 recruitment (Tango); type: cell-based; conditions: DRD3; Tango; read-out: EC50 ± SEM
DRD3 F1063.28A [13] = target: T4, DRD3 F1063.28A; experiment: cell-based; type: cell-based; conditions: DRD3 F1063.28A; Tango; read-out: EC50 ± SEM

T1 sequence (P14416 whole entry): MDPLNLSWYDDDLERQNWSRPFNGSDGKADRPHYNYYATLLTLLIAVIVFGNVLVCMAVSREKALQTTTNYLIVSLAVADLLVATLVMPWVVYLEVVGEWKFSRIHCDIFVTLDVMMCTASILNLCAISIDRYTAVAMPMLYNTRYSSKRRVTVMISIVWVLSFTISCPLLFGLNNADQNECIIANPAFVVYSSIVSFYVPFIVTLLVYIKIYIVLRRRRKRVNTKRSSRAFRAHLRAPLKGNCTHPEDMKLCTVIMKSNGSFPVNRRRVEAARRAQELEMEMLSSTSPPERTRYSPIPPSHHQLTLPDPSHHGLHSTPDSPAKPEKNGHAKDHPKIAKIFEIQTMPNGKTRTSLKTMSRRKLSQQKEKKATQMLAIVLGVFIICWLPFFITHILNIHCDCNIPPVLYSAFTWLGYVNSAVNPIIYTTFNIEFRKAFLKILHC
T6 sequence (P14416 whole entry F110A): as the sequence (P14416 whole entry) above, with F110A counted along it
Sequence of DRD3 wild-type (P35462 whole entry): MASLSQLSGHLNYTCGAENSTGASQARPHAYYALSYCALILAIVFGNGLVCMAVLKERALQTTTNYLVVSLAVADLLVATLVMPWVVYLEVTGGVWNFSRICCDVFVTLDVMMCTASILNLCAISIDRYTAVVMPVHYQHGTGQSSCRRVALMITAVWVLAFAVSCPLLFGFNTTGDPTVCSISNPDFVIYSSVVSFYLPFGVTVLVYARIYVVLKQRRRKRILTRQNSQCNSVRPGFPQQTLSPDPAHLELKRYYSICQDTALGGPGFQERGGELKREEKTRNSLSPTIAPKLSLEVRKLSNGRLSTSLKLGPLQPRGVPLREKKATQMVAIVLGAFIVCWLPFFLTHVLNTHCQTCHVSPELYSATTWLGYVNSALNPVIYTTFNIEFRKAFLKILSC
T4 sequence (P35462 whole entry F106A): as the sequence (P35462 whole entry) above, with F106A counted along it
T3 sequence (P14416 whole entry F110L): as the sequence (P14416 whole entry) above, with F110L counted along it
Sequence of DRD2 (D2 long receptor) wild-type (P14416 whole entry): as the sequence (P14416 whole entry) above
Sequence of DRD3 (P35462 whole entry): as the sequence (P35462 whole entry) above

## CCOc1cccc2cc(C(C)NCC3(O)CCC3)oc12.Cl (centres unmarked) [O4LE4]
DRD2 (D2 long receptor) [1]; DRD2, agonist, Gαi/o-mediated cAMP inhibition, read-out: EC50 ± SEM
  EC50: > 10 µM
DRD2 (D2 long receptor) [1]; Log[Drug] -5
  response, Fig_S11d dose-response source data: 88.7746 and 78.3782 and 91.7272 and 89.26 and 93.9579 and 91.5672
DRD2 (D2 long receptor) [1]; Log[Drug] -5.52
  response, Fig_S11d dose-response source data: 76.2939 and 86.2437 and 82.5466 and 72.7587 and 77.8913 and 84.3113
DRD2 (D2 long receptor) [1]; Log[Drug] -6
  response, Fig_S11d dose-response source data: 73.2172 and 67.3366 and 60.3892 and 68.228 and 67.275 and 64.901
DRD2 (D2 long receptor) [1]; Log[Drug] -6.52
  response, Fig_S11d dose-response source data: 64.6321 and 59.5207 and 69.0487 and 71.8726 and 63.9982 and 65.6366
DRD2 (D2 long receptor) [1]; Log[Drug] -7
  response, Fig_S11d dose-response source data: 48.9755 and 46.0724 and 53.9876 and 53.6995 and 51.8772 and 46.0423
DRD2 (D2 long receptor) [1]; Log[Drug] -7.52
  response, Fig_S11d dose-response source data: 42.028 and 41.6806 and 36.1226 and 35.9109 and 33.9715 and 35.5263
DRD2 (D2 long receptor) [1]; Log[Drug] -8
  response, Fig_S11d dose-response source data: 31.6316 and 34.088 and 41.4325 and 32.2829 and 31.564 and 29.1733
DRD2 (D2 long receptor) [1]; Log[Drug] -8.52
  response, Fig_S11d dose-response source data: 10.5658 and 5.306 and 29.9195 and 26.7491 and 32.2996 and 23.9905
DRD2 (D2 long receptor) [1]; Log[Drug] -9
  response, Fig_S11d dose-response source data: 29.0014 and 17.2156 and 19.2005 and 25.2611
DRD2 (D2 long receptor) [1]; Log[Drug] -9.52
  response, Fig_S11d dose-response source data: 13.8163 and 7.489 and 22.6246 and 25.1441 and 33.3529 and 8.96
DRD2 (D2 long receptor) [1]; Log[Drug] -10
  response, Fig_S11d dose-response source data: 3.445 and 9.573 and 23.9738 and 15.1965 and 19.209
DRD2 (D2 long receptor) [1]; Log[Drug] -10.52
  response, Fig_S11d dose-response source data: 10.9876 and 14.9328 and 18.3073 and 10.6825 and 15.9488
DRD2 (D2 long receptor) [1]; Log[Drug] -11
  response, Fig_S11d dose-response source data: 8.655 and 3.048 and 14.6949 and 5.45 and 17.0857
DRD2 (D2 long receptor) [1]; Log[Drug] -11.52
  response, Fig_S11d dose-response source data: 13.0471 and 8.407 and 20.4163
DRD2 (D2 long receptor) [1]; Log[Drug] -12
  response, Fig_S11d dose-response source data: 4.834 and -8.7134 and -10.8678 and -0.937
DRD4 (D4.4 variant) [2]
  EC50: > 10 µM
DRD2 F1103.28L [3]
  EC50: > 10 µM
DRD2 (D2 long receptor) [4]; DRD2, Tango
  Emax relative to quinpirole response: 31.72%
DRD2 (D2 long receptor) [4]; DRD2, β-arrestin2 recruitment (Tango), read-out: EC50 ± SEM
  EC50: 4.89 ± 0.671 µM
DRD2 (D2 long receptor) [4]; Log[Drug] -6.52
  response, Fig_S11e dose-response source data: 6.042
DRD2 (D2 long receptor) [4]; Log[Drug] -7
  response, Fig_S11e dose-response source data: 4.575 and 5.092 and 4.213 and 4.207 and 4.48
DRD2 (D2 long receptor) [4]; Log[Drug] -7.52
  response, Fig_S11e dose-response source data: 3.784 and 4.2108 and 4.594 and 4.116 and 3.67
DRD2 (D2 long receptor) [4]; Log[Drug] -8
  response, Fig_S11e dose-response source data: 3.831 and 3.706 and 4.29 and 4.002 and 5.34
DRD2 (D2 long receptor) [4]; Log[Drug] -8.52
  response, Fig_S11e dose-response source data: 4.064 and 3.966 and 4.203 and 4.282 and 4.286
DRD2 (D2 long receptor) [4]; Log[Drug] -9
  response, Fig_S11e dose-response source data: 3.882 and 3.744 and 4.042 and 3.918 and 3.839
DRD2 (D2 long receptor) [4]; Log[Drug] -9.52
  response, Fig_S11e dose-response source data: 3.68 and 4.032 and 4.215 and 3.926 and 3.7929
DRD2 (D2 long receptor) [4]; Log[Drug] -10
  response, Fig_S11e dose-response source data: 3.326 and 3.898 and 4.025 and 3.996
DRD2 (D2 long receptor) [4]; Log[Drug] -10.52
  response, Fig_S11e dose-response source data: 3.698 and 4.067 and 4.341 and 4.225 and 3.808
DRD2 (D2 long receptor) [4]; Log[Drug] -11
  response, Fig_S11e dose-response source data: 4.084 and 3.675 and 4.011 and 3.975 and 3.611
DRD2 (D2 long receptor) [4]; Log[Drug] -11.52
  response, Fig_S11e dose-response source data: 3.79 and 4.079 and 4.55 and 4.262 and 4.155
DRD2 (D2 long receptor) [4]; Log[Drug] -12
  response, Fig_S11e dose-response source data: 5.029 and 3.661 and 4.455 and 4.071 and 4.046
DRD3 F1063.28A [5]
  Ki: > 10 µM
[6]
  Ki: > 10 µM
DRD2 F1103.28A [7]
  Ki: > 10 µM
DRD4 (D4.4 variant) [8]
  EC50: > 10 µM
DRD3 wild-type; DRD3, [3H]-methylspiperone (0.8-1.0 nM), read-out: Ki
  Ki: 4.07 µM
DRD3 wild-type; DRD3 wild-type
  pKi ± SEM: 5.39±0.09
DRD2 F1103.28A [9]
  EC50: > 10 µM
[10]
  Ki: > 10 µM
DRD2 F1103.28A [11]
  EC50: > 10 µM
DRD2 F1103.28L [12]
  EC50: > 10 µM
DRD3
  EC50: > 10 µM
DRD3 F1063.28A [13]
  EC50: > 10 µM
